Columns and labels:
[1] = biological target: Bile salt export pump (Homo sapiens, UniProt O95342); format: functional
[2] = biological target: Voltage-gated inwardly rectifying potassium channel KCNH2 (Homo sapiens, UniProt Q12809); format: functional; details: read-out: AC50
[3] = biological target: T1, Alpha-2A adrenergic receptor (Homo sapiens, UniProt P08913); format: functional, cell-based
T1 sequence (P08913 whole entry): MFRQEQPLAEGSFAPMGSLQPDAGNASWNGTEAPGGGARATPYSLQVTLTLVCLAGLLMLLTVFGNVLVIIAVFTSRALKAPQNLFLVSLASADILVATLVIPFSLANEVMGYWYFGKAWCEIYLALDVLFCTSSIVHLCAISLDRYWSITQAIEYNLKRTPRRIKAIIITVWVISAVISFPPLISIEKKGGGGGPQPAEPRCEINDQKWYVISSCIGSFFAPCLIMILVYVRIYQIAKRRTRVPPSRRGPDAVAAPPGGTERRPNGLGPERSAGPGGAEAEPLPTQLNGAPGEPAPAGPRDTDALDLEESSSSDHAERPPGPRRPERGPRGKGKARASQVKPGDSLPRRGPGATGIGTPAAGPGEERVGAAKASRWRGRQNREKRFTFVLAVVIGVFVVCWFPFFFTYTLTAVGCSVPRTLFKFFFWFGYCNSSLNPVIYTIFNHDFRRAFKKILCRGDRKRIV

[4] = biological target: 5-hydroxytryptamine receptor 2B (Homo sapiens, UniProt P41595); format: functional, cell-based
Chain of 5-hydroxytryptamine receptor 2B (P41595 whole entry): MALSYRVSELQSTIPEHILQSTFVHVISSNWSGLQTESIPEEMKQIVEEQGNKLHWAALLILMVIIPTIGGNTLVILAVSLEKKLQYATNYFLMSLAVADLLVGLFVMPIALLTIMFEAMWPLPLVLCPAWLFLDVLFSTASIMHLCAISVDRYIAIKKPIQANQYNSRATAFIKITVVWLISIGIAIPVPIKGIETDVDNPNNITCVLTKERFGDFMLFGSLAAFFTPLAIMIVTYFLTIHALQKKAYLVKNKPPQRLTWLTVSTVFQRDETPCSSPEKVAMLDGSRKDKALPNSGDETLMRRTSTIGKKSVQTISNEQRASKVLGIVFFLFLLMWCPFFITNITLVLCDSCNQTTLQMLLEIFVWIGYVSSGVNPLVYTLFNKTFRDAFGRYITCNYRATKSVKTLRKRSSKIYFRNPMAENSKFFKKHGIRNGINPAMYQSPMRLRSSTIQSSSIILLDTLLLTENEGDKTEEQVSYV

[5] = biological target: T2, 5-hydroxytryptamine receptor 3A (Homo sapiens, UniProt P46098); format: functional
T2 sequence (P46098 whole entry): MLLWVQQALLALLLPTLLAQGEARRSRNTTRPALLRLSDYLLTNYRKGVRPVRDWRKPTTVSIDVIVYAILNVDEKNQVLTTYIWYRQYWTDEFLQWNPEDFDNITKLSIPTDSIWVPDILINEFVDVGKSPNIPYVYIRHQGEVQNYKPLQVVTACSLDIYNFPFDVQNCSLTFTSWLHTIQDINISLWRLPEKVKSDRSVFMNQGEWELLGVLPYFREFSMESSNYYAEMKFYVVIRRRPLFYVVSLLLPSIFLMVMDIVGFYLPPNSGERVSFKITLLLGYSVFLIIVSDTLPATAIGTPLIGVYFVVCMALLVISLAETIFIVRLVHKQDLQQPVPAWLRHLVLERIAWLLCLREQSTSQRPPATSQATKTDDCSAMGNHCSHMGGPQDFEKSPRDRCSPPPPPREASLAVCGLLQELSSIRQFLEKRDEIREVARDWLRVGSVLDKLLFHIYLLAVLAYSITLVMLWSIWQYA

[6] = biological target: Delta-type opioid receptor (Homo sapiens, UniProt P41143)
Chain of Delta-type opioid receptor (P41143 whole entry): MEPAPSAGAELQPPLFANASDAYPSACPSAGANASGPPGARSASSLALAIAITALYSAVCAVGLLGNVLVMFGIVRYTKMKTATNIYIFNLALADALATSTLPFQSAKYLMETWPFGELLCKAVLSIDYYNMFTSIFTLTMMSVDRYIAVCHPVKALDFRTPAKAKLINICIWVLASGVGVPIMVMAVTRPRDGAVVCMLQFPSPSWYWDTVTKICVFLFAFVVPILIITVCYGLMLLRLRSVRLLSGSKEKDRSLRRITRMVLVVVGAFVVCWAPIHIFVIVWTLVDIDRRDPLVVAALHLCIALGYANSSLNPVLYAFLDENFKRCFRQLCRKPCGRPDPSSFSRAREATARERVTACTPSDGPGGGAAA

[7] = biological target: 3',5'-cyclic-AMP phosphodiesterase 4D (Homo sapiens, UniProt Q08499); format: functional
Chain of 3',5'-cyclic-AMP phosphodiesterase 4D (Q08499 whole entry): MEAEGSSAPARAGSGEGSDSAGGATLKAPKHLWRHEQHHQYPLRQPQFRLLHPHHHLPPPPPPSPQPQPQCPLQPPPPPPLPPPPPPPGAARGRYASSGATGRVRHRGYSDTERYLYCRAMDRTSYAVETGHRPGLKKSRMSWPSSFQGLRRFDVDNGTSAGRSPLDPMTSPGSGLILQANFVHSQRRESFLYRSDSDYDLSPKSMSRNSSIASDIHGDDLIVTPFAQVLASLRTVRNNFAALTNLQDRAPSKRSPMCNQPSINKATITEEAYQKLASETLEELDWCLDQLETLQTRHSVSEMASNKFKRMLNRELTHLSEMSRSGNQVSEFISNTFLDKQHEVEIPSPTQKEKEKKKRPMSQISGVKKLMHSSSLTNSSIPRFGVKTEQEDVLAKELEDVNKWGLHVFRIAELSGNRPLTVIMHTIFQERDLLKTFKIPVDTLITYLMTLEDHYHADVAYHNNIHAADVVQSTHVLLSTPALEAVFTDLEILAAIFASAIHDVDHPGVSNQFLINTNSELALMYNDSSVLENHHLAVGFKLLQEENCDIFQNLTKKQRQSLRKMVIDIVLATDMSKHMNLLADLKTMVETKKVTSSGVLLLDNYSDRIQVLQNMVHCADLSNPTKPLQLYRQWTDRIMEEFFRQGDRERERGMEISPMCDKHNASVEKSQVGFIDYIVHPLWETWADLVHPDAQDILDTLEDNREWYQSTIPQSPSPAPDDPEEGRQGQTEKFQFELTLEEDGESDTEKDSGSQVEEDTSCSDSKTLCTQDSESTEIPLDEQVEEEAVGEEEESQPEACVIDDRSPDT

[8] = biological target: D(3) dopamine receptor (Homo sapiens, UniProt P35462)
Chain of D(3) dopamine receptor (P35462 whole entry): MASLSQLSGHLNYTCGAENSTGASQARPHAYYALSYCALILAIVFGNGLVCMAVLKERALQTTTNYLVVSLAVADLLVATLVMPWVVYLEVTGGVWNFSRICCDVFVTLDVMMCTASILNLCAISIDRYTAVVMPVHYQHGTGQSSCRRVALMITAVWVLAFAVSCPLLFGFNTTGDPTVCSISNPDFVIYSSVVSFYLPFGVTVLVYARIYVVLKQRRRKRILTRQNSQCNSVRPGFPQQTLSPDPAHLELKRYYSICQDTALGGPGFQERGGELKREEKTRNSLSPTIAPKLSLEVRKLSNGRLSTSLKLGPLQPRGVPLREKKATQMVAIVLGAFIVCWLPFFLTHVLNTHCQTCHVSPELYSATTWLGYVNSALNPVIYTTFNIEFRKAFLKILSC

[9] = biological target: T3, Adenosine receptor A1 (Homo sapiens, UniProt P30542)
T3 sequence (P30542 whole entry): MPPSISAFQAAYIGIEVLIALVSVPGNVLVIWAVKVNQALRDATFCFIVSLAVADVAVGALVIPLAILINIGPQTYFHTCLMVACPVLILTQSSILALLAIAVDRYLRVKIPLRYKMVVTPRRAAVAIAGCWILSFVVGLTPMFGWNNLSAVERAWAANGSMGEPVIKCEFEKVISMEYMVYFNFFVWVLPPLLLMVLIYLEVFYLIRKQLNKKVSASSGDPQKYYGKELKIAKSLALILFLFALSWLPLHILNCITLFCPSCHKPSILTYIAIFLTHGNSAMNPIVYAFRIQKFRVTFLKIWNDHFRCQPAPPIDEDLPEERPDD

[10] = biological target: T4, Cholecystokinin receptor type A (Homo sapiens, UniProt P32238)
T4 sequence (P32238 whole entry): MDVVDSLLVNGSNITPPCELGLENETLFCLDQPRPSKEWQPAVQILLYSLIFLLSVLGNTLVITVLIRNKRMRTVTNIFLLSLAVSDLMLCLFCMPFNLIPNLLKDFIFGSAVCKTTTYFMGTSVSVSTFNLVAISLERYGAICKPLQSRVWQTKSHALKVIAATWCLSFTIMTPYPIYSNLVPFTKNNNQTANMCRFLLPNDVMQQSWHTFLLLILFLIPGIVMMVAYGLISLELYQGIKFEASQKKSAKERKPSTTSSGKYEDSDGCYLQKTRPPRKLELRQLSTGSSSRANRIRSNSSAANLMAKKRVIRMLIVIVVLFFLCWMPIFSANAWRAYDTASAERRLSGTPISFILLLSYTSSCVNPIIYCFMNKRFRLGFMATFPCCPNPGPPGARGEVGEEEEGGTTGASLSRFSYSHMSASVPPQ

[11] = biological target: Neuronal acetylcholine receptor subunit alpha-4 (Homo sapiens, UniProt P43681)
[12] = biological target: Growth hormone secretagogue receptor type 1 (Homo sapiens, UniProt Q92847)
Chain of Growth hormone secretagogue receptor type 1 (Q92847 whole entry): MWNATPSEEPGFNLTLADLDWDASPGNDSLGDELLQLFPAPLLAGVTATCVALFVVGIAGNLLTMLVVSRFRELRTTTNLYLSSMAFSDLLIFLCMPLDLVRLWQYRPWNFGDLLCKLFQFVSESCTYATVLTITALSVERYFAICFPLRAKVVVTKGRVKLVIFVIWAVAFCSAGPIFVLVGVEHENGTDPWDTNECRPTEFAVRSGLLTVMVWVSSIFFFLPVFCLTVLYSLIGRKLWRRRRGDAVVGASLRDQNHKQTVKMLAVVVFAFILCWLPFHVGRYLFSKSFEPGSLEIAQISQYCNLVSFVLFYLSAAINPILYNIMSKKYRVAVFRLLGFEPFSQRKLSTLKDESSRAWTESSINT

[13] = biological target: T5, Prostaglandin G/H synthase 1 (Rattus norvegicus, UniProt Q63921); format: functional
T5 sequence (Q63921 whole entry): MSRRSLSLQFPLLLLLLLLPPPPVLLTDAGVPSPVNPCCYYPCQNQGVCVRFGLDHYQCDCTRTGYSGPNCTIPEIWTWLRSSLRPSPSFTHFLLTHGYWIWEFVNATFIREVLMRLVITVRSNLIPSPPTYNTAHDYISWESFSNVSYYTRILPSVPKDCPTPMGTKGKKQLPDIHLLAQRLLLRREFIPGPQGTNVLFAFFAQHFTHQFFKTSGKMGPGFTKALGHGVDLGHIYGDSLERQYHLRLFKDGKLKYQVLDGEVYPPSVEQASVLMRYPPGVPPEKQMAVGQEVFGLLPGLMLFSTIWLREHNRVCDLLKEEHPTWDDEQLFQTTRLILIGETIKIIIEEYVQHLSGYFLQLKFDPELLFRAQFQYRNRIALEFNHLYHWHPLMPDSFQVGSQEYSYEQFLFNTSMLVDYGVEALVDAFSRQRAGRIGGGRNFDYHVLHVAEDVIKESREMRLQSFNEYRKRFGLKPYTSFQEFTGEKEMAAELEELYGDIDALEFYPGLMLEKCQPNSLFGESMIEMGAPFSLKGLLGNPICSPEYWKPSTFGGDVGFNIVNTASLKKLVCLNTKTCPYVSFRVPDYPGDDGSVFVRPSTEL

[14] = biological target: Sodium-dependent noradrenaline transporter (Homo sapiens, UniProt P23975)
Further: assay procedure not described here.

Chain of Voltage-gated inwardly rectifying potassium channel KCNH2 (Q12809 whole entry): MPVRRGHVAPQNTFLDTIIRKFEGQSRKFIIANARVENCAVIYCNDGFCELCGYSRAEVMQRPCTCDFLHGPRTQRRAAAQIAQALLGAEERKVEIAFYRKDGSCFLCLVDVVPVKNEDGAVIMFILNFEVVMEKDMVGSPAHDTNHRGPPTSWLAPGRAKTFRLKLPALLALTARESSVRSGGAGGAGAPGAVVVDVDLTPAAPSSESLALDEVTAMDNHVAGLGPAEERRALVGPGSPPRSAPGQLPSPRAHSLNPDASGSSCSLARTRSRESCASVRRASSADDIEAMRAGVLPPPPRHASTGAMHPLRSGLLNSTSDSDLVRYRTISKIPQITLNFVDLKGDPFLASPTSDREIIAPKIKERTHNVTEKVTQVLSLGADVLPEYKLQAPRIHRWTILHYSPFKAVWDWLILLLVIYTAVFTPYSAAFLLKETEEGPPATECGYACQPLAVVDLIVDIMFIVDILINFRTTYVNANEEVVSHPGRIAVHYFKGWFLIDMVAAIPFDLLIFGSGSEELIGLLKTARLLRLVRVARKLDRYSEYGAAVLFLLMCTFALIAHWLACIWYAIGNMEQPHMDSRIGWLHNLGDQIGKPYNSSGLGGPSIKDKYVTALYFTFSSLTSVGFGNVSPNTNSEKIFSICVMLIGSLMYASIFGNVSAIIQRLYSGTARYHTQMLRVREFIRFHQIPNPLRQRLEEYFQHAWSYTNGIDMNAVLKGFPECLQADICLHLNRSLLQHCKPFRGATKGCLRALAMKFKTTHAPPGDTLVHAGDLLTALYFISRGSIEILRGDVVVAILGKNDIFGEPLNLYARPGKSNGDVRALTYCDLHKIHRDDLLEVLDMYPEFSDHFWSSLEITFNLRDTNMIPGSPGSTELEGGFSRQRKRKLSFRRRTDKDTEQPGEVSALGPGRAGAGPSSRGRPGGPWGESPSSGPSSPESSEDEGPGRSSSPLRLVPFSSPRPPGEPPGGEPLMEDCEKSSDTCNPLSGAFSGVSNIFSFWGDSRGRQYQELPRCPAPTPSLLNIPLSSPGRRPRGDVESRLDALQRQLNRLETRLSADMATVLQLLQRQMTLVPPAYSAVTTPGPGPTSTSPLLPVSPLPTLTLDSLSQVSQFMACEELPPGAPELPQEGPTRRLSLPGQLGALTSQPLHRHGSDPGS
Chain of Bile salt export pump (O95342 whole entry): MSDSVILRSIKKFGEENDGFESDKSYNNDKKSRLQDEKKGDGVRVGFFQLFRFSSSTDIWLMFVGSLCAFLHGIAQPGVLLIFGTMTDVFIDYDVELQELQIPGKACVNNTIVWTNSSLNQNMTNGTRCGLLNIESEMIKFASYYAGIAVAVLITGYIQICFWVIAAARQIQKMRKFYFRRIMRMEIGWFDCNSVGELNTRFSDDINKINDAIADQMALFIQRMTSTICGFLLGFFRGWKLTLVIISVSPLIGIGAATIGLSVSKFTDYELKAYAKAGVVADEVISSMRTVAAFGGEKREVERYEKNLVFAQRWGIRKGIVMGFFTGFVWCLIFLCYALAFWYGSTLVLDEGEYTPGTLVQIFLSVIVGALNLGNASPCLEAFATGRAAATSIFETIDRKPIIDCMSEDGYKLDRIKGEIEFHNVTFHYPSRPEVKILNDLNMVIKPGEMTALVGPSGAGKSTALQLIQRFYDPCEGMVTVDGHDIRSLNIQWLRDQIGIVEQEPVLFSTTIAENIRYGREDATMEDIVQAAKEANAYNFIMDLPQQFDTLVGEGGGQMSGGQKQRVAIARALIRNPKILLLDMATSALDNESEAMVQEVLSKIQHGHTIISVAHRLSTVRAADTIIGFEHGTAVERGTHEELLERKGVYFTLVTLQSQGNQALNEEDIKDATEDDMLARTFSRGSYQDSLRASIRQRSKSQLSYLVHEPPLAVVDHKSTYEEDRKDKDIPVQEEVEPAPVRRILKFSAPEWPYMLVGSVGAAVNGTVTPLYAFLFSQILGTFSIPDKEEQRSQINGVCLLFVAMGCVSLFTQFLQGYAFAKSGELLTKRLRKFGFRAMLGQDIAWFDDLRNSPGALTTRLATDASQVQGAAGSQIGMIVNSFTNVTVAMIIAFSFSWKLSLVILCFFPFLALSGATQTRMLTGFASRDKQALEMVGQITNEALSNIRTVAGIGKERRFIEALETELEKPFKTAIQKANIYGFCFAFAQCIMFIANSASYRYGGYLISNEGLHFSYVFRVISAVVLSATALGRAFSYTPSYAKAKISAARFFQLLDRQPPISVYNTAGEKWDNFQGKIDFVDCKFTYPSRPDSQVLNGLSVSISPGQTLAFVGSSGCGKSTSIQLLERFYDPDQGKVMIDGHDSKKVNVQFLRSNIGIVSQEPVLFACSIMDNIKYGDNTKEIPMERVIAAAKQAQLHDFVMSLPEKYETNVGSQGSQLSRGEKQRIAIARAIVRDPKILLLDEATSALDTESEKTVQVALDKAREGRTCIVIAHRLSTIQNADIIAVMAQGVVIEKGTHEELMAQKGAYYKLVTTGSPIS

Row | SMILES | AC50 [1] | AC50 [2] | also measured
1 | O=NN(CCCl)C(=O)NC1CCCCC1 [LOMUSTINE] | > 300 µM |  | 
2 | CC1=C(C/C=C(\C)CCC[C@H](C)CCC[C@H](C)CCCC(C)C)C(=O)c2ccccc2C1=O [PHYTONADIONE] | 160 µM | > 30 µM | 
3 | O=C(Cc1cccs1)N[C@@H]1C(=O)N2C(C(=O)[O-])=C(C[n+]3ccccc3)CS[C@H]12 [CEPHALORIDINE] |  | > 30 µM | AC50 [3]: > 30 µM; AC50 [4]: > 30 µM; AC50 [5]: > 30 µM; AC50 [6]: > 30 µM; AC50 [7]: > 30 µM; AC50 [8]: > 30 µM
4 | CN1CCC(N(Cc2cccs2)c2ccccc2)CC1 [THENALIDINE] |  | 2.9 µM | 
5 | CCCCCCO[C@@H](C)c1cccc(-c2csc(NC(=O)c3cc(Cl)c(/C=C(\C)C(=O)O)c(Cl)c3)n2)c1OC [LUSUTROMBOPAG] | 4 µM | 4.9 µM | 
6 | OC[C@H]1NC[C@H](O)[C@@H](O)[C@H]1O | > 300 µM | > 30 µM | 
7 | CCCCCCCCCCCCCCCC(=O)OC[C@H](COP(=O)([O-])OCC[N+](C)(C)C)OC(=O)CCCCCCCCCCCCCCC [COLFOSCERIL PALMITATE] |  | > 30 µM | 
8 | CN(C)CCN(Cc1ccccc1)c1ccccn1 [TRIPELENNAMINE] |  | 2.8 µM | AC50 [9]: > 10 µM; AC50 [3]: > 10 µM; AC50 [10]: > 10 µM; AC50 [11]: > 10 µM; AC50 [12]: > 10 µM; AC50 [4]: > 10 µM; AC50 [5]: > 30 µM; AC50 [6]: > 30 µM; AC50 [7]: > 10 µM; AC50 [13]: > 10 µM; AC50 [14]: 13.4 µM; AC50 [8]: > 10 µM
9 | CCCCCCCC/C=C\CCCCCCCC(=O)O [OLEIC ACID] | 260 µM | > 30 µM | 
10 | NC(=O)C1(N2CCCCC2)CCN(CCCC(=O)c2ccc(F)cc2)CC1 [PIPAMPERONE] |  | 1.9 µM | 
11 | Cc1cc(C)cc(OCC2CNC(=O)O2)c1 (centres undefined) [METAXALONE] | > 300 µM | > 30 µM | 
12 | CC(C)NC[C@H](O)COc1ccc(O)cc1 [PRENALTEROL] |  | > 30 µM | 
13 | O=C(O)[C@@H](S)[C@@H](S)C(=O)O | 50 µM | > 30 µM | 
14 | NC(=O)C1(N2CCCCC2)CCN(CCCN2c3ccccc3CCc3ccccc32)CC1 [CARPIPRAMINE] |  | 2.2 µM | 
15 | O=C(O)[C@H](O)[C@@H](O)[C@H](O)[C@H](O)CO [GLUCONIC ACID] |  | > 30 µM | 
16 | O=P1(N(CCCl)CCCl)NCCCO1 (centres undefined) [CYCLOPHOSPHAMIDE ANHYDROUS] | > 300 µM | > 30 µM | 
17 | CC(=O)NC[C@H]1CN(c2ccc(N3CCOCC3)c(F)c2)C(=O)O1 [LINEZOLID] | > 300 µM | > 30 µM | AC50 [9]: > 30 µM; AC50 [3]: > 30 µM; AC50 [11]: > 30 µM; AC50 [12]: > 30 µM; AC50 [5]: > 30 µM; AC50 [6]: > 30 µM; AC50 [7]: > 30 µM; AC50 [13]: > 30 µM; AC50 [8]: > 30 µM
18 | CN1CCN(C(c2ccccc2)c2ccc(Cl)cc2)CC1 (centres undefined) [CHLORCYCLIZINE] | > 300 µM | 4.64 µM | 

From ChEMBL document CHEMBL5291721, “A preclinical secondary pharmacology resource illuminates target-adverse drug reaction associations of marketed drugs” (Nat Commun, 2023)
